Source: patent US20130287688A1, “NOVEL COMPOSITIONS AND USES OF ANTI-HYPERTENSION AGENTS FOR CANCER THERAPY” (XTUIT PHARMACEUTICALS, INC., priority 2010, published 2013)

Assays:
HSTS26T tumors = experiment: Necrosis 21 days after HSV injection; assay type: in vivo, mice; settings: losartan prior to HSV injection
From the text: (§1) Hematoxylin staining of intact tumor areas, necrosis, and HSV immunostaining is shown. Necrotic regions are indicated by black arrows. Even though there was no detectable difference in necrotic area between HSTS26T and MU89, necrosis is confined to specific regions in MU89 while there is necrotic tissue (bounded by HSV immunostaining) throughout HSTS26T tumors. Scale bar=2 mm.
(§2) To determine the relationship between virus infection, necrosis and collagen structure 21 days after the HSV injection, consecutive paraffin sections were stained with either a polyclonal HSV-1 antibody (DAKO, Glostrup Denmark) or a collagen I antibody (LF-67). For collagen I staining in paraffin sections, slides were treated with 3% hydrogen peroxide prior to antigen retrieval with Target Retrieval Solution, pH 9 (DAKO, Carpinteria, Calif.). The slides were then treated with 0.05% trypsin before the primary collagen I antibody was applied at a dilution of 1:500. Sections stained with collagen I or HSV were imaged with a light microscope.

Mu89 tumors = experiment: Necrosis 21 days after HSV injection; assay type: in vivo, mice; settings: losartan prior to HSV injection
From the text: as §1, §2

E0771 breast tumors [1] = experiment: Interstitial hydraulic conductivity of excised tumor tissue; assay type: in vivo, mice; settings: 40 mg/kg i.p. daily, 6 days
Description: FIG. 31 is a bar graph showing that angiotensin inhibitors increase fluid flow in tumors. Interstitial hydraulic conductivity was measured by the flow rate of media through freshly excised tumor tissue. […] Animal number n=6.
Oxygenation was then studied using phosphorescence quenching microscopy. […] This decrease in tumor hypoxia was confirmed by using pimonidazole staining (FIGS. 29D and 30). To determine if losartan also increases nanomedicine delivery, which is dependent on both vascular supply and penetration across vessel walls into tumor tissue, nanoparticle penetration was measured using intravital multiphoton microscopy. Nanoparticle penetration rates were quantified as transvascular mass flux per unit vascular surface area and transvascular concentration difference, termed as the effective permeability. […] Penetration rates are largely dependent on fluid flow through the viscoelastic and tortuous tumor interstitium, which is a function of interstitial hydraulic conductivity. It was determined that losartan also increases the hydraulic conductivity of E0771 tumors (FIG. 31), likely through its anti-matrix effects, and a mathematical model (Chauhan V P, et al., Nature Nanotechnology. 2012; advance online publication) was used to confirm that this can improve the penetration rate of all sizes of nanomedicines (FIG. 32). […]

E0771 breast tumors [2] = experiment: Breast tumor growth and survival studies; assay type: in vivo, mice
Description: (§3) Breast tumor growth and survival studies: Mice bearing orthotopic E0771 or 4T1 breast tumors were split into treatment groups, time-matched for time after implantation and size-matched for tumor volume at this time (110-111 mm^3 in E0771, in 4T1). […] The primary tumors were then measured every 2 days, beginning on day 0, using calipers. Tumor growth was quantified using the time for each to reach double its initial volume Animal survival was quantified based on time of death after initiation of treatment or time to reach excessive tumor burden (>1000 mm^3).

4T1 breast tumors = experiment: Breast tumor growth and survival studies; assay type: in vivo, mice
From the text: In FIG. 35B, the quantification of tumor growth rates, based on the time to reach double the initial volume, is shown.
In FIG. 35C, the animal survival following the initiation of treatment is shown. […] Statistical tests were corrected for multiple comparisons using the Holm-Bonferroni method.
as §3

[3] = Losartan bioanalysis: plasma and tumor levels (HPLC/FLU); settings: male, FVB, mouse, subcutaneous
[4] = system: carcinoma associated fibroblasts (CAFs); settings: losartan 10 μmol/L, 24 hrs
Description: Protein assays were done with commercial ELISA kits.
CAFs were plated in 24 well plates at a concentration of 500K cells/well. […] Treatment was done in low serum to reduce background collagen levels. Conditioned medium was collected at the end of the 24-hr treatment period and analyzed for collagen levels.
Collagen I measurements were done with a type I C-terminal collagen propetide Enzyme Linked Immunosorbent Assay (ELISA) kit (Quidel, San Diego, Calif.) and the Sircol soluble collagen assay (Biocolor Ltd., United Kingdom). TGF-β1 assays were performed with a human TGF-β1 ELISA kit (R&D Systems, Minneapolis, Minn.). The assay only measures the free-form of mature TGF-β1. To measure total levels of TGF-β1 the latent form of TGF-β1 was activated with 1N HCl.

[5] = agent given alone (losartan 40 mg/kg daily or doxorubicin 2 mg/kg every three days)
[6] = losartan in combination with doxorubicin

For `CCCCc1nc(Cl)c(CO)n1Cc1ccc(-c2ccccc2-c2nn[nH]n2)cc1` [losartan], the necrosis in tumors (HSTS26T tumors) was “two-fold increase”, the necrosis in tumors (Mu89 tumors) was “two-fold increase” and the interstitial hydraulic conductivity (E0771 breast tumors [1]) was “large increase”. The tumor growth rate (E0771 breast tumors [2]; [5]) was “no significant effect”, the median survival (E0771 breast tumors [2]; combination of losartan and doxorubicin, saline alone 12 days) was 23.5 days and the survival (E0771 breast tumors [2]; losartan alone) was “did not shorten survival”. For the same molecule, the tumor growth (E0771 breast tumors [2]; [6]) was “significantly delayed”, the tumor growth rate (4T1 breast tumors; [5]) was “no significant effect” and the survival (4T1 breast tumors; combination of losartan and doxorubicin) was “improved survival”. For the same molecule, the tumor growth (4T1 breast tumors; [6]) was “significantly delayed”, the survival (4T1 breast tumors; monotherapy) was “did not shorten survival” and the concentration at 2 h ([3]; plasma, 40 mg/kg, Plasma 2 hr level, Day 14, Group 3: losartan subcutaneous injection without pump 40 mg/kg daily) was 423 ng/mL. It also gave a concentration at 2 h ([3]; plasma, 40 mg/kg, Plasma 2 hr level, Day 19, Group 3: losartan subcutaneous injection without pump 40 mg/kg daily) of 152 ng/mL, a concentration at 6 h ([3]; plasma, 40 mg/kg, Plasma 6 hr level, Day 14, Group 3: losartan subcutaneous injection without pump 40 mg/kg daily) of 11 ng/mL and a concentration at 6 h ([3]; plasma, 40 mg/kg, Plasma 6 hr level, Day 19, Group 3: losartan subcutaneous injection without pump 40 mg/kg daily) of 28 ng/mL. It also gave a concentration at 2 h ([3]; plasma, 40 mg/kg/day, Plasma 2 hr level, Day 14, Group 2: losartan via subcutaneous pump 40 mg/kg/day) of 227 ng/mL, a concentration at 2 h ([3]; plasma, 40 mg/kg/day, Plasma 2 hr level, Day 19, Group 2: losartan via subcutaneous pump 40 mg/kg/day) of 370 ng/mL and a concentration at 6 h ([3]; plasma, 40 mg/kg/day, Plasma 6 hr level, Day 14, Group 2: losartan via subcutaneous pump 40 mg/kg/day) of 304 ng/mL. For the same molecule, the concentration at 6 h ([3]; plasma, 40 mg/kg/day, Plasma 6 hr level, Day 19, Group 2: losartan via subcutaneous pump 40 mg/kg/day) was 376 ng/mL, the concentration at 2 h ([3]; tumor, 40 mg/kg, Tumor 2 hr level, Day 14, Group 3: losartan subcutaneous injection without pump 40 mg/kg daily) was 163 ng/mL and the concentration at 2 h ([3]; tumor, 40 mg/kg, Tumor 2 hr level, Day 19, Group 3: losartan subcutaneous injection without pump 40 mg/kg daily) was 41 ng/mL. For the same molecule, the concentration at 6 h ([3]; tumor, 40 mg/kg, Tumor 6 hr level, Day 14, Group 3: losartan subcutaneous injection without pump 40 mg/kg daily) was 21 ng/mL, the concentration at 6 h ([3]; tumor, 40 mg/kg, Tumor 6 hr level, Day 19, Group 3: losartan subcutaneous injection without pump 40 mg/kg daily) was 54 ng/mL and the concentration at 2 h ([3]; tumor, 40 mg/kg/day, Tumor 2 hr level, Day 14, Group 2: losartan via subcutaneous pump 40 mg/kg/day) was 50 ng/mL. For the same molecule, the concentration at 2 h ([3]; tumor, 40 mg/kg/day, Tumor 2 hr level, Day 19, Group 2: losartan via subcutaneous pump 40 mg/kg/day) was 56.1 ng/mL, the concentration at 6 h ([3]; tumor, 40 mg/kg/day, Tumor 6 hr level, Day 14, Group 2: losartan via subcutaneous pump 40 mg/kg/day) was 57 ng/mL and the concentration at 6 h ([3]; tumor, 40 mg/kg/day, Tumor 6 hr level, Day 19, Group 2: losartan via subcutaneous pump 40 mg/kg/day) was 66 ng/mL. The “decrease in collagen I levels” value [4] was 27%, the “reduction of active-TGF-β1 levels” value [4] was 90% and the “total TGF-β1 levels” value [4] was “unaffected”.
